Measured values published in PMC2443290, “Genistein-Supplemented Diet Decreases Malaria Liver Infection in Mice and Constitutes a Potential Prophylactic Strategy” (PLoS ONE, 2008).
Where “and” joins values, the source holds several entries; their conditions need not be identical. Equal entries are not always repeated. Where two headings read alike, the source gives them in different places.

Assays:
[1] = tested on: P. berghei ANKA sporozoites; test: In vitro infection of Hepa1-6 cells by P. berghei ANKA sporozoites, EEF counting; type: cell-based
Protocol: (§1) HepG2, and Hepa1-6 cells (human and mouse hepatoma cell lines, respectively) were maintained in DMEM 10% FCS, 1% Penicillin/Streptomycin and 1 mM glutamine. HepG2 or Hepa1-6 cells (2×10^5) were seeded in 24-well plates and allowed to adhere for 24 hours before infection. Huh7 cells (human hepatoma cell line) were maintained in RPMI 10% FCS, 1% Penicillin/Streptomycin and 1 mM glutamine. Huh7 cells (1,75×10^5) were seeded in 24-well plates and allowed to adhere for 24 hours before infection. Green fluorescent protein (GFP)-expressing P. berghei ANKA sporozoites were obtained from the dissection of infected Anopheles stephensi mosquito salivary glands.
(§2) P. berghei ANKA sporozoites (4×10^4/well) were added to monolayers of Hepa1-6 or HepG2 cells in 24-well plates. […] As control, an equivalent volume of DMSO (dimethylsulphoxide) was added. […] In all experiments, genistein was left in the cultures since the time of addition until the cells were fixed for quantification of infection. Infection was quantified by counting the total number of EEFs per coverslip using fluorescence microscopy (magnification 400×). […] The level of infection was measured as described above, 24 hours post-infection with sporozoites. Quantification of the area of 100 individual EEFs of each group was performed using ImageJ 1.36b software. The results are expressed as areas in μm^2.

[2] = tested on: P. berghei ANKA sporozoites; test: In vitro infection of HepG2 cells by P. berghei ANKA sporozoites, EEF counting; type: cell-based; conditions: 25 μM
Protocol: as §1
P. berghei ANKA sporozoites (4×10^4/well) were added to monolayers of Hepa1-6 or HepG2 cells in 24-well plates. […] As control, an equivalent volume of DMSO (dimethylsulphoxide) was added. After 24 hours cells were fixed and stained with mouse anti-EEF (exo-erythrocytic forms of the parasite) antibody (2E6), followed by an anti-mouse secondary antibody. In all experiments, genistein was left in the cultures since the time of addition until the cells were fixed for quantification of infection. Infection was quantified by counting the total number of EEFs per coverslip using fluorescence microscopy (magnification 400×). […] The level of infection was measured as described above, 24 hours post-infection with sporozoites. Quantification of the area of 100 individual EEFs of each group was performed using ImageJ 1.36b software. The results are expressed as areas in μm^2.

[3] = tested on: P. berghei ANKA sporozoites; test: In vitro infection of Huh7 cells by P. berghei ANKA sporozoites, EEF counting; type: cell-based
Protocol: as §1, §2

HepG2 cells = test: Viability of genistein-treated HepG2 cells, number of adherent cells; type: cell-based, human; conditions: 25 μM or 250 μM, 24 hours
Protocol: (§3) Twenty four hours later the number of adherent cells was determined in 10 fields per coverslip, in triplicates. […] Control sporozoites were treated with equivalent volume of DMSO. After 30 min of incubation, sporozoites were washed and added to a monolayer of HepG2 cells seeded 24 hours before. Infection was assessed 24 hours later by determining the number of EEFs in each well.

Huh7 cells = test: Cell death of Huh7 cells, propidium iodide flow cytometry; type: cell-based, human; conditions: 24 hours
[4] = tested on: P. berghei ANKA sporozoites; test: Pre-treatment of sporozoites with genistein, then infection of HepG2 cells; type: cell-based; conditions: sporozoites incubated with 100 μM for 30 min, washed, added to HepG2 cells; 24 hours
Protocol: as §3

[5] = tested on: P. berghei ANKA expressing GFP sporozoites; test: FACS analysis of Huh7 cells infected with PbGFP sporozoites (invasion and GFP intensity); type: cell-based
Protocol: FACS analysis at 2, 6, 30 and 44 hours after sporozoite addition was performed to determine the percentage of parasite-containing cells and parasite-GFP intensity within infected cells. Cell samples for FACS analysis were processed as previously described.

P. berghei ANKA = test: IC50 of infection of Huh7 cells by P. berghei ANKA, 18S rRNA qRT-PCR; type: cell-based; conditions: Plasmodium berghei
Protocol: (§4) This was performed in parallel to experiments where primaquine was tested in P. berghei infection of Huh7 cells. […] In addition to hepatoma cell lines primary mouse hepatocyte cultures were also used.
Black circles represent the mean of P. berghei ANKA18S rRNA expression in each condition (n = 3). […] Black circles represent the mean of P. berghei ANKA18S rRNA expression in each condition (n = 3).

P. yoelii = test: IC50 of infection of Hepa1-6 cells by P. yoelii, 18S rRNA qRT-PCR; type: cell-based; conditions: Plasmodium yoelii, Hepa1-6, 24 h, P. yoelii infection of Hepa1-6 cells, read-out: IC50 (inhibition of infection)
P. berghei sporozoites = type: cell-based; conditions: data not shown
Protocol: as §4

[6] = tested on: P. berghei ANKA sporozoites; test: Mouse liver infection by P. berghei ANKA sporozoites, 18S rRNA qRT-PCR; type: in vivo
Protocol: (§5) C57BL/6 mice were bred and housed in the pathogen-free facilities of the Instituto de Gulbenkian de Ciência following all the EU regulations. The mice were then moved to the Instituto de Medicina Molecular Animal House were all the experiments were performed. All protocols were approved by the IMM Animal Care Committee. […] All mice were infected with 1×10^4 P. berghei ANKA sporozoites between the ages of 7 and 9 weeks old and liver infection was determined 40 hours later. In a parallel set of experiments, sporozoite infection was allowed to proceed to blood stage, to assess the impact of genistein in disease progression.
Forty hours post-sporozoite injection, livers were dissected and homogenized, and total RNA was extracted with an RNeasy Mini kit Quiagen, according to the manufacturer's recommendation. cDNA was obtained by reverse transcription using the First-strand cDNA synthesis kit (Roche) following the manufacturer's instructions. Quantitative RT-PCR reactions were performed for quantification of parasite load, using an ABI PRISM 7000, Applied Biosystem, and specific primers for Plasmodium berghei 18 S rRNA (5′-[…]-3′ and 5′-[…]-3′); or specific primers for P. yoelii 18 S rRNA (5′ –[…]-3′ and 5′-[…]-3′) were used for quantification of parasite load in the livers of mice 40 hours after sporozoite challenge. The amplification program consisted of incubation at 50°C for 2 min, 95°C for 10 min, followed by 50 cycles at 95°C for 15 s and 60°C for 1 min. For external standardization, plasmids encoding cDNA fragments cloned into TOPO TA, Invitrogen; corresponding to the amplified regions of the corresponding genes, were utilized. Copy numbers were calculated comparing the cycle numbers of the log-linear phase of the samples with the cycle numbers of the external standards.

P. yoelii sporozoites = test: Mouse liver infection by P. yoelii sporozoites, 18S rRNA qRT-PCR; type: in vivo; conditions: single i.p. dose 200 mg/kg immediately prior to i.v. sporozoites; 40 hours
Protocol: as §5
Forty hours post-sporozoite injection, livers were dissected and homogenized, and total RNA was extracted with an RNeasy Mini kit Quiagen, according to the manufacturer's recommendation. cDNA was obtained by reverse transcription using the First-strand cDNA synthesis kit (Roche) following the manufacturer's instructions. Quantitative RT-PCR reactions were performed for quantification of parasite load, using an ABI PRISM 7000, Applied Biosystem, and specific primers for Plasmodium berghei 18 S rRNA (5′-[…]-3′ and 5′-[…]-3′); or specific primers for P. yoelii 18 S rRNA (5′ –[…]-3′ and 5′-[…]-3′) were used for quantification of parasite load in the livers of mice 40 hours after sporozoite challenge. […]

[7] = tested on: P. berghei ANKA sporozoites; test: Blood parasitemia, survival and experimental cerebral malaria after sporozoite infection of mice; type: in vivo; conditions: 1000 ppm genistein-supplemented diet
Protocol: as §5
After sporozoite inoculation, peripheral blood parasitemias were followed daily by counting parasites in Giemsa stained thin blood films. To accurately quantify parasitemia in the first 96 hours post-infection, 50 to 100 microscope fields were examined in each blood film. At later time points, when the levels of parasitemia were higher, 20 microscope fields were counted per mouse. Mice were checked daily for development of ECM symptoms, which include ataxia, paralysis, deviation of the head and convulsions, coma and death.

[8] = tested on: P. berghei ANKA-infected red blood cells (iRBC); test: Blood stage infection of mice with P. berghei ANKA iRBC; type: in vivo; conditions: 1000 ppm genistein-supplemented diet; 1×10^6 iRBC i.p.
Protocol: Peripheral blood parasitemia and ECM symptoms were determined as described above.

[9] = tested on: phospho c-met (Tyr1234/1235); test: Sporozoite-induced MET phosphorylation in Huh7 cells, Western blot; type: cell-based, human; conditions: four hours after sporozoites
Protocol: Four hours later total protein extracts were analysed with anti-phospho c-met (Tyr1234/1235) and MET antibodies.
Protein concentrations were determined using the Bio-Rad Laboratories DC protein assay kit and equal amounts of protein extracts ([…]) were separated by 8% SDS-PAGE gels, transferred onto nitrocellulose membranes and processed for Western blotting. The antibody directed to phospho-MET was used at 1∶1000 dilution (#3126; Cell signalling technology, Inc.) and β-chain of human MET was detected with the antibody MET (C-12) at 0,5 μg/mL dilution (#sc-10; Santa Cruz Biotechnology, Inc.). After incubation with the primary antibodies the enhanced chemiluminescence detection system ECL and Kodak films (Amersham Pharmacia Biotech, Piscataway, NJ) were used to visualize proteins on the nitrocellulose blots.

[10] = Genistein quantification in mouse sera, HPLC/MS; type: in vivo, C57BL/6 mice; conditions: for Genistein Concentration (μM): mouse sera, individual mice
Protocol: as §5, with “later.” for “later. In a parallel set of experiments, sporozoite infection was allowed to proceed to blood stage, to assess the impact of genistein in disease progression.”
“Free” analytes_aglycones, were extracted from the plasma/serum sample with ethyl acetate. The organic phase was evaporated and the dried residue was reconstituted in the mobile phase. For determination of the “total” isoflavones the glucuronide- and sulphate-conjugates were cleaved by enzymatic hydrolysis prior to ethyl acetate extraction. Chromatographic separation was performed by HPLC/MS on a C18-column in the gradient mode. Mass spectrometric detection (Agilent LC/MSD VL single-quadrupole-mass spectrometer equipped with elektrospray-ion source) was carried out with negative electrospray ionisation in the SIM-mode. Specifically, 200 μl of plasma were transferred into a 2 mL Eppendorf tube and 100 μl of enzyme solution were added. For enzymatic cleavage of the glucuronide- and sulphate-conjugates the samples were incubated at 38°C for 3 h, followed by addition of 30 μl internal standard solution. For extraction, 1200 μl ethyl acetate was added to the sample, shaken for 5 min at 300 rpm and centrifuged for 10 min at 10000 rpm and 10°C. 1000 μl of the supernatant was transferred into a 2 ml Eppendorf tube and evaporated at 30–35°C to dryness with a Vortex-Evaporator or Speed Vac. The dried residue was reconstituted in 150 μl mobile phase, briefly vortexed, and transferred into an HPLC vial. Forty to 75 μl were injected onto the analytical column and analyzed by HPLC-MS [35]. Data acquisition of extracted ion chromatograms, integration and quantification was performed with the Chemstation Software (Version 9.03 or higher) from Agilent Technologies.

[11] = adults; daily ingestion of up to 54 mg; cited from earlier work

## O=c1c(-c2ccc(O)cc2)coc2cc(O)cc(O)c12 [genistein]
[1]; Hepa1-6, 25 μM, 24 hours after infection
  EEF size (area): significantly smaller
[1]; increasing doses of genistein, 24 hours after sporozoite addition
  Hepa1-6 cell infection (total number of EEFs): significantly inhibits Hepa1-6 cell infection in a dose-dependent manner
[2]; HepG2, added at sporozoite addition and washed at various time-points
  infection, drug removed at different times after infection: reduced infection when it was present during the first 4 hours of infection
[2]; HepG2, added prior to infection or up to 6 hours after sporozoite addition
  infection, drug added at different times after sporozoite addition: significantly reduced infection to approximately the same extent
[2]; HepG2 cells, 24 hours after infection
  reduction in infection: 74±8%
[3]; Huh7 cells pre-treated 2 h with 25 μM, washed before sporozoite addition, 24 hours
  infection after pre-treatment of cells: small but significant reduction of infection
[3]; Huh7 cells, 25 μM, 24 hours after infection
  reduction in infection: 68±4%
HepG2 cells
  number of adherent cells: constant number of cells
Huh7 cells
  proportion of cell death: constant proportion of cell death
[4]
  infection level (EEF number) with pre-treated sporozoites: no significant difference
[5]; 6, 30 and 44 hours after sporozoite addition
  increase in GFP intensity of infected cells (parasite development): significantly less pronounced
[5]; 2 hours post-infection
  invasion rate (GFP positive cells): equally invaded
P. berghei ANKA; Huh-7, 24 h, read-out: IC50 (inhibition of infection), P. berghei ANKA infection of Huh7 cells
  IC50: ~20 µM
P. yoelii
  IC50: ~30 µM
P. berghei sporozoites
  infection of primary mouse hepatocytes: reduced the infection of these cells
[6]; 1000 ppm genistein-supplemented diet
  relation of degree of liver infection to genistein levels in sera: inversely correlated
[6]; 1000 ppm genistein-supplemented diet, 40 hours after sporozoite injection
  liver parasite load: significantly reduced
[6]; single i.p. dose 200 mg/kg immediately prior to i.v. sporozoites, 40 hours
  parasite load in the liver: reduced infection
[6]; single oral dose 200 mg/kg 6 hours prior to sporozoite inoculation, 40 hours after infection
  reduction of liver infection: 64%
P. yoelii sporozoites
  parasite load in the liver: reduced infection
[7]; 25 days after infection
  survival: 56%
[7]; i.v. sporozoites
  appearance of blood parasitemia: significantly reduced
  mice protected from developing cerebral malaria: Fifty-six
[8]
  development of parasitemia after iRBC infection: no significant difference
[9]
  sporozoite-induced Met phosphorylation: inhibited by genistein
[10]; genistein supplemented diet
  genistein amounts in sera: ≤ 5 µM
[10]; single oral dose 200 mg/kg, 2 h after gavage, 200 mg/kg
  Genistein Concentration (μM): 7,07 μM and 15,00 μM and 13,25 μM and 7,23 μM
[10]; single oral dose 200 mg/kg, 6 h after gavage, 200 mg/kg
  Genistein Concentration (μM): 0,57 μM and 0,32 μM and 0,45 μM and 2,29 μM
[10]; supplemented diet 1000 ppm, 7–9 weeks old mice
  Genistein Concentration (μM): 3,32 μM and 1,99 μM and 1,35 μM and 2,26 μM and 3,02 μM and 1,34 μM and 3,14 μM and 3,75 μM and 0,20 μM and 1,11 μM and 0,84 μM and 1,37 μM and 0,68 μM and 1,16 μM and 1,42 μM
[11]
  adverse effects: No obvious adverse effects

## COc1cc(NC(C)CCCN)c2ncccc2c1 (stereo not shown) [primaquine]
P. berghei ANKA; Huh-7, P. berghei ANKA infection of Huh7 cells, 24 hours, read-out: IC50 (inhibition of infection)
  IC50: 13 µM
